# Test results: patent US20110002843A1, “METHOD OF DETECTING MYOCARDIAL DYSFUNCTION IN PATIENTS HAVING A HISTORY OF ASTHMA OR BRONCHOSPASM” (priority 2005, published 2011)
# Like-named read-outs stand apart in the source and are kept apart here.
# Test: Single-dose pharmacokinetics, safety and tolerability of 10-minute intravenous infusion in healthy volunteers
# Assay type: in vivo, human
# Conditions: for Cmax / Tmax / AUC(0-inf) / AUC(0-t) / clearance / half-life / Vd: human, plasma; for Cmax: read-out: Cmax, mean (SD); for AUC(0-inf): read-out: AUC0-∞, mean (SD) (converted); for AUC(0-t): read-out: AUClast, mean (SD) (converted); for Vd: read-out: Vz, mean (SD)
# Protocol: Subjects: This study was conducted at the New Orleans Center for Clinical Research, New Orleans, La., in accordance with US Good Clinical Practice guidelines. Subjects were required to be in generally good health as determined by physical examination and laboratory testing, as well as assessment of vital signs. Exclusion criteria included testing positive on drug screening (drugs of abuse); ingesting caffeine, alcohol, or medication within 24 hours of study entry; or receiving an investigational drug with 30 days of study entry. Women of childbearing potential and men whose female partners were not using an acceptable contraceptive method were excluded. Other exclusion criteria included subjects with known postural hypotension, resting supine systolic blood pressure of 90 mmHg or lower, diastolic blood pressure of 60 mmHg or lower and heart rate of 90 beats/min or greater; history of human immunodeficiency virus infection; positive test result for hepatitis B surface antigen or hepatitis C antibody; and any clinically relevant condition that could potentially confound the analysis or present a safety risk.
# Study Methods: The study was designed as a single-center, open-label, nonrandomized, intravenous dose-escalation study in 4 cohorts (n=6 each) of healthy volunteers. The protocol was approved by the institutional review board; all subjects gave written informed consent. Subjects from each cohort were to receive 3 rising doses of binodenoson administered via intravenous infusion over a period of 10 minutes, at a rate not to exceed 6 μg/kg/min. Although the successive doses of binodenoson were administered on the same study day, the washout period between doses was at least 2 hours. Subjects in cohort 1 received consecutive binodenoson doses of 0.1, 0.2 and 0.4 μg/kg; cohort 2 received 0.6, 1 and 2 μg/kg; cohort 3 received 2, 3 and 4 μg/kg; and cohort 4 received 4, 5 and 6 μg/kg.
# Serial vital sign monitoring of heart rate, supine systolic blood pressure and diastolic blood pressure was done at screening and during each dosing phase within 10 minutes before infusion, at 2, 4, 6, 8 and 10 minutes during infusion and at 2, 5, 7.5, 10, 15, 20, 30, 45, 60, 90 and 120 minutes after infusion. A 12-lead electrocardiogram (ECG) was obtained at screening and the end of the study. The ECG was monitored via telemetry during the treatment phase, including during the infusions. Monitoring was initiated within 1 hour before dosing and continued until 24 hours after completion of the last dose.
# A total of 40 to 42 blood samples were collected during the treatment phase for quantitation of binodenoson in plasma. Before dosing, a polyethylene catheter was inserted into a vein of the forearm contralateral to the infusion site. Blood samples (5 mL) were drawn into prechilled Vacutainer tubes (BD, Franklin Lakes, N.J.) just before infusion (−1 minute), at the midpoint (5 minutes) and end (10 minutes) of infusion and at 2, 5, 7.5, 10, 15, 20, 30, 45, 60, 90 and 120 minutes after the end of infusion. Plasma was separated from cellular material by centrifugation under refrigeration (4° C.) at 4000 rpm for 10 minutes and then stored in cryotubes at −80° C. until analyzed. The total amount of blood taken during the intensive sampling period was approximately 200 mL. Plasma concentrations of binodenoson were determined by a validated high-performance liquid chromatography-mass spectrometry (LC/MS/MS) assay at Phoenix International, Inc. (Montreal, Quebec, Canada).
# Pharmacokinetic parameters were derived for each subject's plasma binodenoson concentration-time profile for each binodenoson infusion by use of noncompartmental methods with the statistical software program SAS (SAS Institute, Cary, N.C.). The peak concentration (Cmax) and corresponding time to (Cmax) (tmax) were derived by observation. […]
# [1] = 0.4 ug/kg, 0.4 μg/kg iv over 10 minutes
# [2] = 0.6 ug/kg, 0.6 μg/kg iv over 10 minutes
# [3] = 1 ug/kg, 1 μg/kg iv over 10 minutes
# [4] = 2 ug/kg, 2 μg/kg iv over 10 minutes
# [5] = 3 ug/kg, 3 μg/kg iv over 10 minutes
# [6] = 4 ug/kg, 4 μg/kg iv over 10 minutes
# [7] = 6 ug/kg, 6 μg/kg iv over 10 minutes
# [8] = 8 ug/kg, 8 μg/kg iv over 10 minutes
compound,measurement,setting,value
"Nc1nc(N/N=C/C2CCCCC2)nc2c1ncn2[C@@H]1O[C@H](CO)[C@@H](O)[C@H]1O (stereo in doubt) [Binodenoson, 2-{2-[(Cyclohexyl)methylene]hydrazino}adenosine]",maximum increase in heart rate,1 μg/kg dose,29 beats/min
same,mean maximal increase in systolic blood pressure from baseline,1 μg/kg dose,8.8 mmHg
same,maximum increase in heart rate,6 μg/kg dose,66.3 beats/min
same,mean maximal increase in systolic blood pressure from baseline,6 μg/kg dose,27.9 mmHg
same,volunteers reporting at least 1 AE,21 of 24 volunteers,83%
same,AEs judged related to administration of binodenoson,all doses,99%
same,AEs of mild severity,all doses,82%
same,AEs of moderate severity,all doses,17%
same,AEs that began during drug infusions and resolved within 30 minutes of onset,all doses,75%
same,ECG changes,all doses,no clinically significant ECG changes
same,serious AEs,all doses,no serious AEs
same,frequency of dizziness,doses of 1 μg/kg or lower,0%
same,frequency of headache,doses of 1 μg/kg or lower,7%
same,frequency of nausea/vomiting,doses of 1 μg/kg or lower,0%
same,frequency of paresthesia,doses of 1 μg/kg or lower,3%
same,frequency of vasodilation,doses of 1 μg/kg or lower,14%
same,frequency of dizziness,doses of 2 μg/kg or greater,24%
same,frequency of headache,doses of 2 μg/kg or greater,60%
same,frequency of nausea/vomiting,doses of 2 μg/kg or greater,49%
same,frequency of paresthesia,doses of 2 μg/kg or greater,19%
same,frequency of vasodilation,doses of 2 μg/kg or greater,54%
same,tolerability,doses ranging from 0.4 μg/kg to 6 μg/kg,well tolerated
same,Cmax,[1],0.9 ng/mL
same,Cmax,[2],1.1 ng/mL
same,Cmax,[3],2.1 ng/mL
same,Cmax,[4],3.9 ng/mL
same,Cmax,[5],6.2 ng/mL
same,Cmax,[6],8.7 ng/mL
same,Cmax,[7],12.5 ng/mL
same,Cmax,[8],12.1 ng/mL
same,Tmax,[1],10 min
same,AUC(0-inf),[1],0.207 ng·h/mL
same,AUC(0-t),[1],0.15 ng·h/mL
same,clearance,"0.4 ug/kg, 0.4 μg/kg iv over 10 minutes, read-out: CL, mean (SD)",33.4 mL/min/kg
same,half-life,"0.4 ug/kg, 0.4 μg/kg iv over 10 minutes, read-out: T1/2, mean (SD)",8.8 min
same,Vd,[1],0.39 L/kg
same,Tmax,[2],7.5 min
same,AUC(0-inf),[2],0.353 ng·h/mL
same,AUC(0-t),[2],0.208 ng·h/mL
same,clearance,"0.6 ug/kg, 0.6 μg/kg iv over 10 minutes, read-out: CL, mean (SD)",28.8 mL/min/kg
same,half-life,"0.6 ug/kg, 0.6 μg/kg iv over 10 minutes, read-out: T1/2, mean (SD)",11.7 min
same,Vd,[2],0.46 L/kg
same,Tmax,[3],10 min
same,AUC(0-inf),[3],0.465 ng·h/mL
same,AUC(0-t),[3],0.415 ng·h/mL
same,clearance,"1 ug/kg, 1 μg/kg iv over 10 minutes, read-out: CL, mean (SD)",38.3 mL/min/kg
same,half-life,"1 ug/kg, 1 μg/kg iv over 10 minutes, read-out: T1/2, mean (SD)",7.4 min
same,Vd,[3],0.4 L/kg
same,Tmax,[4],10 min
same,AUC(0-inf),[4],0.928 ng·h/mL
same,AUC(0-t),[4],0.855 ng·h/mL
same,clearance,"2 ug/kg, 2 μg/kg iv over 10 minutes, read-out: CL, mean (SD)",33 mL/min/kg
same,half-life,"2 ug/kg, 2 μg/kg iv over 10 minutes, read-out: T1/2, mean (SD)",10 min
same,Vd,[4],0.48 L/kg
same,Tmax,[5],9.5 min
same,AUC(0-inf),[5],1.42 ng·h/mL
same,AUC(0-t),[5],1.31 ng·h/mL
same,clearance,"3 ug/kg, 3 μg/kg iv over 10 minutes, read-out: CL, mean (SD)",35.4 mL/min/kg
same,half-life,"3 ug/kg, 3 μg/kg iv over 10 minutes, read-out: T1/2, mean (SD)",12.8 min
same,Vd,[5],0.65 L/kg
same,Tmax,[6],10 min
same,AUC(0-inf),[6],2.03 ng·h/mL
same,AUC(0-t),[6],1.93 ng·h/mL
same,clearance,"4 ug/kg, 4 μg/kg iv over 10 minutes, read-out: CL, mean (SD)",39.8 mL/min/kg
same,half-life,"4 ug/kg, 4 μg/kg iv over 10 minutes, read-out: T1/2, mean (SD)",13 min
same,Vd,[6],0.69 L/kg
same,Tmax,[7],9 min
same,AUC(0-inf),[7],2.32 ng·h/mL
same,AUC(0-t),[7],2.22 ng·h/mL
same,clearance,"6 ug/kg, 6 μg/kg iv over 10 minutes, read-out: CL, mean (SD)",33.9 mL/min/kg
same,half-life,"6 ug/kg, 6 μg/kg iv over 10 minutes, read-out: T1/2, mean (SD)",14.9 min
same,Vd,[7],0.7 L/kg
same,Tmax,[8],10.5 min
same,AUC(0-inf),[8],2.72 ng·h/mL
same,AUC(0-t),[8],2.6 ng·h/mL
same,clearance,"8 ug/kg, 8 μg/kg iv over 10 minutes, read-out: CL, mean (SD)",39.5 mL/min/kg
same,half-life,"8 ug/kg, 8 μg/kg iv over 10 minutes, read-out: T1/2, mean (SD)",12.3 min
same,Vd,[8],0.68 L/kg
same,clearance,"intravenous, across all dose levels, read-out: mean systemic clearance",34.4 ± 7.5 mL/min/kg
same,half-life,"intravenous, across all doses, read-out: terminal half-life, harmonic mean",10 ± 4 min
same,relationship between clearance (CL) and body weight (BW),"linear mixed-effect model, p=0.004",CL=−0.19+0.039 BW
same,AUC0-t as share of total AUC0-∞,trapezoidal rule,greater than 80%
